Measured values: ChEMBL document CHEMBL6074634, “Design, synthesis, and evaluation of novel oxyacanthine derivatives for anti-SARS-CoV-2 activity” (Bioorg Med Chem Lett, 2024)
Activity calls are given as the source filed them. No cut-off for these calls is given here.

Experiments:
[1] = Cytotoxicity against African green monkey Vero E6 cells assessed as cell viability by CCK-8 assay; assay type: toxicity, cell-based, Vero C1008; conditions: African green monkey (Chlorocebus sabaeus)
[2] = AUC (0 to 24 hrs) in male ICR mouse at 2.5 mg/kg, iv measured upto 24 hrs by LC-MS/MS analysis; assay type: ADME, organism-based; conditions: in vivo
[3] = AUC (0 to 24 hrs) in male ICR mouse at 10 mg/kg, po measured upto 24 hrs by LC-MS/MS analysis; assay type: ADME, organism-based; conditions: in vivo
[4] = Cmax in male ICR mouse at 10 mg/kg, po measured upto 24 hrs by LC-MS/MS analysis; assay type: ADME, organism-based; conditions: in vivo
[5] = Half life in male ICR mouse at 2.5 mg/kg, iv measured upto 24 hrs by LC-MS/MS analysis; assay type: ADME, organism-based; conditions: in vivo
[6] = Half life in male ICR mouse at 10 mg/kg, po measured upto 24 hrs by LC-MS/MS analysis; assay type: ADME, organism-based; conditions: in vivo
[7] = Tmax in male ICR mouse at 10 mg/kg, po measured upto 24 hrs by LC-MS/MS analysis; assay type: ADME, organism-based; conditions: in vivo
[8] = Oral bioavailability in male ICR mouse at 10 mg/kg measured upto 24 hrs by LC-MS/MS analysis; assay type: ADME, organism-based; conditions: in vivo
[9] = system: Severe acute respiratory syndrome coronavirus 2; assay: Inhibition of SARS CoV-2 envelope (2-E) channel at 100 uM
[10] = Toxicity in mouse assessed as animal death at 10 to 200 mg/kg administered for 10 days; assay type: organism-based; conditions: in vivo, 240 h, dose 10-200 mg/kg, time 10 day
[11] = Toxicity in mouse assessed as body weight loss at 10 to 200 mg/kg administered for 10 days; assay type: organism-based; conditions: in vivo, 240 h, dose 10-200 mg/kg, time 10 day
[12] = Inhibition of SARS CoV-2 envelope (2-E) channel; parameters: species or system Severe acute respiratory syndrome coronavirus 2

COc1cc2c3cc1Oc1c(OC)c(OC)cc4c1[C@H](Cc1ccc(cc1)Oc1cc(ccc1C(=O)Nc1ccc(C(F)(F)F)cc1)C[C@H]3N(C)CC2)N(C)CC4
IC50 [1]: 10.5 µM

COc1ccc(NC(=O)c2ccc3cc2Oc2ccc(cc2)C[C@H]2c4c(cc(OC)c(OC)c4Oc4cc5c(cc4OC)CCN(C)[C@@H]5C3)CCN2C)cc1
IC50 [1]: 10.6 µM

COc1cc2c3cc1Oc1c(OC)c(OC)cc4c1[C@H](Cc1ccc(cc1)Oc1cc(ccc1C(=O)NC(C)C)C[C@H]3N(C)CC2)N(C)CC4
IC50 [1]: 26.4 µM

C=CC(=O)Nc1ccc2cc1Oc1ccc(cc1)C[C@H]1c3c(cc(OC)c(OC)c3Oc3cc4c(cc3OC)CCN(C)[C@@H]4C2)CCN1C
IC50 [1]: 31.1 µM

COC(=O)c1ccc2cc1Oc1ccc(cc1)C[C@H]1c3c(cc(OC)c(OC)c3Oc3cc4c(cc3OC)CCN(C)[C@@H]4C2)CCN1C
IC50 [1]: 29.5 µM

COc1cc2c3cc1Oc1c(OC)c(OC)cc4c1[C@H](Cc1ccc(cc1)Oc1cc(ccc1C(=O)N1CCCCC1)C[C@H]3N(C)CC2)N(C)CC4
IC50 [1]: 24.6 µM

COc1cc2c3cc1Oc1c(OC)c(OC)cc4c1[C@H](Cc1ccc(cc1)Oc1cc(ccc1C(=O)NC1CC1)C[C@H]3N(C)CC2)N(C)CC4
IC50 [1]: 62.3 µM | AUC(0-t) at 24 h [2]: 1840 ng·h/mL | AUC(0-t) at 24 h [3]: 5000 ng·h/mL | Cmax [4]: 313 ng/mL | half-life [5]: 21.1 h | half-life [6]: 16 h | Tmax [7]: 1 h | bioavailability [8]: 68.1% | inhibition [9]: inactive

COc1cc2c3cc1Oc1c(OC)c(OC)cc4c1[C@H](Cc1ccc(cc1)Oc1cc(ccc1C)C[C@H]3N(C)CC2)N(C)CC4
IC50 [1]: 10.3 µM

CNC(=O)c1ccc2cc1Oc1ccc(cc1)C[C@H]1c3c(cc(OC)c(OC)c3Oc3cc4c(cc3OC)CCN(C)[C@@H]4C2)CCN1C
IC50 [1]: 66.7 µM

COc1cc2c3cc1Oc1c(OC)c(OC)cc4c1[C@H](Cc1ccc(cc1)Oc1cc(ccc1C(=O)Nc1cccnc1)C[C@H]3N(C)CC2)N(C)CC4
IC50 [1]: 26.4 µM

COc1cc2c3cc1Oc1c(OC)c(OC)cc4c1[C@H](Cc1ccc(cc1)Oc1cc(ccc1C(=O)NC1CCCC1)C[C@H]3N(C)CC2)N(C)CC4
IC50 [1]: 22.5 µM

COc1cc2c3cc1Oc1c(OC)c(OC)cc4c1[C@H](Cc1ccc(cc1)Oc1cccc(c1)C[C@H]3N(C)CC2)N(C)CC4
IC50 [1]: 17.1 µM

COc1cc2c3cc1Oc1c(OC)c(OC)cc4c1[C@H](Cc1ccc(cc1)Oc1cc(cc([N+](=O)[O-])c1)C[C@H]3N(C)CC2)N(C)CC4
IC50 [1]: 24.3 µM

COc1cc2c3cc1Oc1c(OC)c(OC)cc4c1[C@H](Cc1ccc(cc1)Oc1cc(ccc1C(C)=O)C[C@H]3N(C)CC2)N(C)CC4
IC50 [1]: 29.4 µM

COc1cc2c3cc1Oc1c(OC)c(OC)cc4c1[C@H](Cc1ccc(cc1)Oc1cc(ccc1O)C[C@H]3N(C)CC2)N(C)CC4 [AROMOLINE]
IC50 [1]: 29.9 µM | AUC(0-t) at 24 h [2]: 1300 ng·h/mL | AUC(0-t) at 24 h [3]: 1790 ng·h/mL | Cmax [4]: 260 ng/mL | half-life [5]: 13.2 h | half-life [6]: 6.39 h | Tmax [7]: 0.33 h | bioavailability [8]: 34.5%

CCCCCNC(=O)c1ccc2cc1Oc1ccc(cc1)C[C@H]1c3c(cc(OC)c(OC)c3Oc3cc4c(cc3OC)CCN(C)[C@@H]4C2)CCN1C
IC50 [1]: 22.5 µM

COc1cc2c3cc1Oc1c(OC)c(OC)cc4c1[C@H](Cc1ccc(cc1)OC1C=C(Cc5[nH]c(=O)oc51)C[C@H]3N(C)CC2)N(C)CC4 (some centres undefined)
IC50 [1]: 14.8 µM

C=C(C)c1ccc2cc1Oc1ccc(cc1)C[C@H]1c3c(cc(OC)c(OC)c3Oc3cc4c(cc3OC)CCN(C)[C@@H]4C2)CCN1C
IC50 [1]: 6.13 µM

COc1cc2c3cc1Oc1c(OC)c(OC)cc4c1[C@H](Cc1ccc(cc1)Oc1cc(ccc1C(=O)NC15CC6CC(CC(C6)C1)C5)C[C@H]3N(C)CC2)N(C)CC4
IC50 [1]: 4.9 µM

COc1cc2c3cc1Oc1c(OC)c(OC)cc4c1[C@H](Cc1ccc(cc1)Oc1cc(ccc1C1CC1)C[C@H]3N(C)CC2)N(C)CC4
IC50 [1]: 10.9 µM

COc1cc2c3cc1Oc1c(OC)c(OC)cc4c1[C@H](Cc1ccc(cc1)Oc1cc(ccc1C(=O)NCCOCCO)C[C@H]3N(C)CC2)N(C)CC4
IC50 [1]: 123 µM

COc1cc2c3cc1Oc1c(OC)c(OC)cc4c1[C@H](Cc1ccc(cc1)Oc1cc(ccc1C(=O)Nc1ccccc1)C[C@H]3N(C)CC2)N(C)CC4
IC50 [1]: 6.88 µM

COc1cc2c3cc1Oc1c(OC)c(OC)cc4c1[C@H](Cc1ccc(cc1)Oc1cc(ccc1C(=O)NC1CCC1)C[C@H]3N(C)CC2)N(C)CC4
IC50 [1]: 33.9 µM

COc1cc2c3cc1Oc1c(OC)c(OC)cc4c1[C@H](Cc1ccc(cc1)Oc1cc(ccc1C(N)=O)C[C@H]3N(C)CC2)N(C)CC4
IC50 [1]: 63.2 µM | AUC(0-t) at 24 h [2]: 4120 ng·h/mL | AUC(0-t) at 24 h [3]: 12800 ng·h/mL | Cmax [4]: 854 ng/mL | half-life [5]: 17.1 h | half-life [6]: 12.5 h | Tmax [7]: 1.75 h | bioavailability [8]: 77.4% | Activity [10]: Non-toxic | Activity [11]: Non-toxic | IC50 [12]: 0.78 µM
